According to patent US5338858A, “Triazolyl, tetrazolyl and azido-substituted fatty acid analog enzyme substrates” (Washington University, priority 1992, dated 1994):
In brackets after ≈: the same amount, converted by molar mass. Like-named read-outs stand apart in the source and are kept apart here. Values belong to the molecule of their own block, whether it stands above or below them.

What was measured:
HIV-1 [1] = assay: HIV inhibition assay of acutely infected CEM cells (MTT tetrazolium colorimetric, reduction of CPE); type: cell-based; details: for IC50 / inhibition at 1 µg/mL / inhibition at 10 µg/mL: Human immunodeficiency virus 1, CCRF-CEM, 168 h; for IC50: read-out: ID50 (inhibitory dose that inhibits 50% of the cytopathic effect); for inhibition at 1 µg/mL / inhibition at 10 µg/mL: read-out: Percent Reduction of CPE
Description: B. Representative compounds prepared in the foregoing illustrative specific examples were also tested in vitro for the assessment of anti-viral (HIV) activity as follows:
The HIV inhibition assay method of acutely infected cells is an automated tetrazolium based colorimetric assay adatped from that reported by Pauwles et al., J. Virol. Methods, 20, 309-321 (1988). Assays were performed in 96-well tissue culture plates. CEM cells were grown in RPMI-1640 medium (Gibco) supplemented with 10% fetal calf serum and were then treated with polybrene (2 μg/ml). An 80 μl volume of medium containing 1×10^4 cells was dispensed into each well of the tissue culture plate. To each well was added a 100 μl volume of test compound dissolved in tissue culture medium (or medium without test compound as a control) to achieve the desired final concentration and the cells were incubated at 37° C. for 1 hour. A frozen culture of HIV-1 was diluted in culture medium to a concentration of 5×10^4 TCID50 per ml (TCID50 =the dose of virus that infects 50% of cells in tissue culture), and a 20 μl volume of the virus sample (containing 1000 TCID50 of virus) was added to wells containing test compound and to wells containing only medium (infected control cells). […] Several wells received culture medium without virus (uninfected control cells). Likewise, the intrinsic toxicity of the test compound was determined by adding medium without virus to several wells containing test compound. In summary, the tissue culture plates contained the following tests (in triplicate):
In tests 2 and 4 the final concentrations of test compounds were 1, 10, 100 and 500 μg/ml. Azidothymidine (AZT) was tested as a positive drug control, and dodecanoic acid was tested as a negative fatty acid control. […] Under these conditions, DMSO had no significant effect on results as determined in controls.
Following the addition of virus, cells were incubated at 37° C. in a humidified, 5% CO2 atmosphere for 7 days. Additional aliquots of test compounds were added on days 2 and 5. On day 7 post-infection, the cells in each well were resuspended and a 100 μl sample of each cell suspension was removed for assay. A 20 μl volume of a 5 mg/ml solution of 3-(4,5-dimethylthiazol-2-yl)-2,5-diphenyltetrazolium bromide (MTT) was added to each 100 μl cell suspension, and the cells were incubated for 4 hours at 37° C. in a 5% CO2 environment. […] To each sample was added 100 μl of 10% sodium dodecylsulfate in 0.01 N HCl to lyse the cells and samples were incubated overnight. The absorbance of each sample was determined.at 590 nm using a Molecular Devices microplate reader. The % reduction of the virus induced cytopathic effect (CPE) by the test compounds was determined using the formula shown at the bottom of Table 2, hereinafter.
The results of the antiviral testing are set forth in Table 2, as percent reduction in cytopathic effect (CPE). The inhibitory dose that inhibits 50% of the cytopathic effect is shown as ID50 (μg/ml).
^a The percent reduction of viral CPE was calculated by the formula: […]

[2] = target: T1, yeast N-myristoyltransferase (Saccharomyces cerevisiae, UniProt P14743); assay: in vitro yeast N-myristoyltransferase (NMT) assay, substrate activity of fatty acyl CoA derivatives; type: biochemical; details: peptide GSAASARR-NH2, 30° C., 10 minutes; normalized to myristoyl peptide of parallel assay
T1 sequence (P14743 1-455): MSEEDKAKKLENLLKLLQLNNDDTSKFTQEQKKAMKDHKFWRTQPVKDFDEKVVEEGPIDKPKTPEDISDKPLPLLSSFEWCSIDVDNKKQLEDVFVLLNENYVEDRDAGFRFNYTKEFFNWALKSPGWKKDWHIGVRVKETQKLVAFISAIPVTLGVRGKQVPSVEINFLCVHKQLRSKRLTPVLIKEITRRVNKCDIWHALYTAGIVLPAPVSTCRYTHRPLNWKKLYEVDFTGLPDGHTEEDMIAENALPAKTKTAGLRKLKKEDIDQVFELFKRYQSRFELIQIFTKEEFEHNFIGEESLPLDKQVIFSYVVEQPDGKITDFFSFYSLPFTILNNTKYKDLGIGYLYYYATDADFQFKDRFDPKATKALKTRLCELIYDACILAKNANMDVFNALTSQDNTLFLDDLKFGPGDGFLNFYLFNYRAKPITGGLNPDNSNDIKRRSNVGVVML
Description: A. Representative compounds prepared in the foregoing illustrative specific examples were analyzed in a conventional in vitro yeast N-myristoyltransferase (NMT) assay as published by Heuckeroth et al., Proc. Nat'l Acad. Sci. USA 85, 8795-8799 (1988). In this assay, the test compounds were first converted to their respective fatty acyl CoA derivatives and then tested as substrates for the yeast NMT.
The assay conditions [essentially the same as those reported by Towler and Glaser, Proc. Natl. Acad. Sci. USA 83, 2812-2816 (1986)] were as follows:
1. Ligase reaction: 3.3 μmoles fatty acid, 5 mM ATP and 1 mM CoA were incubated with 15-150 milliunits of CoA ligase (1 unit/ml in 50 mM HEPES, pH 7.3) in a buffer composed of 10 mM TRIS-HCl, pH 7.4, 1 mM dithiothreitol, 5 mM MgCl2 and 0.1 mM EGTA, in a total volume of 50 μl for 25 minutes at 30° C.
2. NMT assay: 50 μl of the CoA ligase mixture was added to a 50 μl solution of 90 μM peptide (GSAASARR-NH2) in a buffer composed of 10 mM TRIS-HCl, pH 7.4, 1 mM dithiothreitol, 0.01 mM EGTA and aprotinin (10 μg/ml). 0.4 Unit of yeast N-myristoyltransferase was then added and the reaction mixture was incubated at 30° C. for 10 minutes. The peptide was radiolabeled with tritiated alanine in position 3. The reaction was quenched with 120 μl of TCA-MeOH and 75 μl was injected on a reverse phase C18 HPLC column and eluted with a linear gradient of 0-100% acetonitrile over 100 minutes (both water and acetonitrile containing 0.1% trifluoroacetic acid). Radioactivity was assessed with an on line radiomatic detector corrected for quenching.
The amount of radioactivity was determined for each azido-substituted fatty acyl peptide product and then was normalized to the amount of myristoyl peptide produced in an assay run in parallel.

HIV-1 [3] = assay: HIV inhibition assay of acutely infected CEM cells (MTT tetrazolium colorimetric, reduction of CPE); type: cell-based; details: Human immunodeficiency virus 1, CCRF-CEM, 168 h, read-out: Percent Reduction of CPE
[4] = concentration 1 (μg/ml), CEM cells, HIV-1, 7 days
[5] = concentration 10 (μg/ml), CEM cells, HIV-1, 7 days

Molecule: 12-(Tetrazolyl)dodecanoic acid [Compound 46]
- ID50 (inhibitory dose that inhibits 50% of the cytopathic effect) (HIV-1 [1]; CEM cells, HIV-1, 7 days): 5.9 µg/mL
- Percent Reduction of CPE (HIV-1 [1]; [4]): 12%
- Percent Reduction of CPE (HIV-1 [1]; [5]): 65%
- Activity (% of Myristate) [2]: 46 % of Myristate

Molecule: COCCCCCCCCCCCC(=O)O [13-Oxamyristate, reference compound]
- IC50 (HIV-1 [1]; CEM cells, HIV-1, 7 days): 0.3 µg/mL (≈ 1.3 µM)
- inhibition at 1 µg/mL (HIV-1 [1]; [4]): 66.4%
- inhibition at 10 µg/mL (HIV-1 [1]; [5]): 43.5%

Molecule: Cc1cn([C@H]2C[C@H](N=[N+]=[N-])[C@@H](CO)O2)c(=O)[nH]c1=O [AZT, Azidothymidine]
- IC50 (HIV-1 [1]; CEM cells, HIV-1, 7 days): < 0.001 µg/mL
- inhibition at 0.5 µg/mL (HIV-1 [3]): 87.8%
- inhibition at 0.001 µg/mL (HIV-1 [3]; 0.001 μg/ml, CEM cells, HIV-1, 7 days): 58.2%
- inhibition at 0.01 µg/mL (HIV-1 [3]; 0.01 μg/ml, CEM cells, HIV-1, 7 days): 84.8%
- inhibition at 0.1 µg/mL (HIV-1 [3]; 0.1 μg/ml, CEM cells, HIV-1, 7 days): 101%

Molecule: [N-]=[N+]=NCCCCCCCCCCCC(=O)O [Compound 1, 12-Azidododecanoic acid]
- IC50 (HIV-1 [1]; CEM cells, HIV-1, 7 days): 0.3 µg/mL (≈ 1.24 µM)
- inhibition at 1 µg/mL (HIV-1 [1]; [4]): 81.7%
- inhibition at 10 µg/mL (HIV-1 [1]; [5]): 38.2%
- Activity (% of Myristate) [2]: 142 % of Myristate

Molecule: [N-]=[N+]=NCCCCCCCCCCC(=O)O [Compound 2, 11-Azidoundecanoic acid]
- inhibition at 1 µg/mL (HIV-1 [1]; [4]): 16.3%
- inhibition at 10 µg/mL (HIV-1 [1]; [5]): 34.6%
- Activity (% of Myristate) [2]: 100 % of Myristate

- Activity (% of Myristate) [2]: 55 % of Myristate
Molecule: [N-]=[N+]=NCCCCCCCCC(=O)O [Compound 3, 9-Azidononanoic acid]

Molecule: [N-]=[N+]=NCCCCCCSCCCCC(=O)O [Compound 13, 5-(1-Azido-hexane-6-thia)pentanoic acid]
- ID50 (inhibitory dose that inhibits 50% of the cytopathic effect) (HIV-1 [1]; CEM cells, HIV-1, 7 days): Inactive
- inhibition at 1 µg/mL (HIV-1 [1]; [4]): 0%
- inhibition at 10 µg/mL (HIV-1 [1]; [5]): 14%
- Activity (% of Myristate) [2]: 103 % of Myristate

Molecule: [N-]=[N+]=NCCCCCCCCCSCC(=O)O [Compound 19, 2-(1-Azido-nonane-9-thia)acetic acid]
- IC50 (HIV-1 [1]; CEM cells, HIV-1, 7 days): 9.2 µg/mL (≈ 35.5 µM)
- inhibition at 1 µg/mL (HIV-1 [1]; [4]): 1%
- inhibition at 10 µg/mL (HIV-1 [1]; [5]): 54%
- Activity (% of Myristate) [2]: 17 % of Myristate

Molecule: [N-]=[N+]=NCCCCCCCCSCCC(=O)O [Compound 23, 4-(1-Azido-octane-6-thia)propionic acid]
- ID50 (inhibitory dose that inhibits 50% of the cytopathic effect) (HIV-1 [1]; CEM cells, HIV-1, 7 days): Inactive
- inhibition at 1 µg/mL (HIV-1 [1]): 0%
- inhibition at 10 µg/mL (HIV-1 [1]): 0%
- Activity (% of Myristate) [2]: 373 % of Myristate

- Activity (% of Myristate) [2]: 280 % of Myristate
Molecule: [N-]=[N+]=NCCOCCCCCCCCC(=O)O [Compound 40, 9-(1-Azido-ethane-2-oxa)nonanoic acid]

Molecule: [N-]=[N+]=NCCCOCCCCCCCC(=O)O [Compound 41, 8-(1-Azido-propane-3-oxa)octanoic acid]
- IC50 (HIV-1 [1]; CEM cells, HIV-1, 7 days): 5 µg/mL (≈ 20.6 µM)
- inhibition at 1 µg/mL (HIV-1 [1]; [4]): 14%
- inhibition at 10 µg/mL (HIV-1 [1]; [5]): 66%
- Activity (% of Myristate) [2]: 421 % of Myristate

Molecule: [N-]=[N+]=NCCCCCCOCCCCC(=O)O [Compound 42, 5-(1-Azido-hexane-6-oxa)pentanoic acid]
- ID50 (inhibitory dose that inhibits 50% of the cytopathic effect) (HIV-1 [1]; CEM cells, HIV-1, 7 days): Inactive
- inhibition at 1 µg/mL (HIV-1 [1]; [4]): 4%
- inhibition at 10 µg/mL (HIV-1 [1]; [5]): 20%
- Activity (% of Myristate) [2]: 622 % of Myristate

Molecule: [N-]=[N+]=NCCCCCCCCCOCC(=O)O [Compound 43, 2-(1-Azido-nonane-9-oxa)acetic acid]
- ID50 (inhibitory dose that inhibits 50% of the cytopathic effect) (HIV-1 [1]; CEM cells, HIV-1, 7 days): Inactive
- Activity (% of Myristate) [2]: 11 % of Myristate

Molecule: O=C(O)CCCCCCCCCCCn1cncn1 [Compound 48]
- IC50 (HIV-1 [1]; CEM cells, HIV-1, 7 days): 4.2 µg/mL (≈ 15.7 µM)
- inhibition at 1 µg/mL (HIV-1 [1]; [4]): 24%
- inhibition at 10 µg/mL (HIV-1 [1]; [5]): 66%
- Activity (% of Myristate) [2]: 23 % of Myristate

Molecule: O=C(O)CCCCCCCCCCCn1nccn1 [Compound 50, 12-(N-2-[1,2,3]-Triazolyl)dodecanoic acid]
- inhibition at 1 µg/mL (HIV-1 [1]; [4]): 19.5%
- inhibition at 10 µg/mL (HIV-1 [1]; [5]): 30.8%
- Activity (% of Myristate) [2]: 99 % of Myristate

Molecule: CCCCCCCCCC(=O)O [Decanoic acid, reference compound]
- inhibition at 1 µg/mL (HIV-1 [1]): 7.7%
- inhibition at 10 µg/mL (HIV-1 [1]): 11.3%
